In EP0195147A1, “Trihalo(amine)gold(III) complexes” (ENGELHARD CORPORATION, priority 1985, dated 1986):
Values joined by “and” are separate entries in the source; they are usually repeats but may differ in a detail not shown here. Equal entries are not always repeated.

Key:
S 180 ascites = assay: Anti-tumor screening against S 180 ascites (% increase in life span); format: in vivo, female CFW Swiss mice; conditions: for Survivors: survivors on day of evaluation (twice the mean life span of the control)
Method: The above prepared compounds were evaluated against §180 ascites in female CFW Swiss mice. The mice were weighed (average weight: 20 g), placed into cages (six mice to a cage) and on day zero the mice were inoculated with 0.2 ml of a freshly prepared saline suspension (0.15 M NaCl) containing 1 x 10^7 tumor cells/ml or a total of 2 x 10^6 cells. This inoculum was freshly prepared using "transfer" mice which had been injected with tumor cells the previous week; it was obtained via the following steps: (1) the removal of cells from the peritoneal cavity of the sacrificed transfer mouse, (2) alternate centrifugation and washing operations (2-3 times with cold saline) to remove blood and other components, and (3) dilution of the volume of the packed cell with saline (1:3). A final centrifugation was carried out at 1000 RPM over a two minute period. A cell count was made on a 2,000-fold dilution of this 1:3 suspension by means of a Coulter Counter. A final dilution to […] cells/ml was made based on the average count.
On day 1, solutions of the test compounds were prepared and each mouse in a set of six were injected with the same test compound at the same dosage. The doses were based on the average weight of the animals (cage weight). Also, beginning on day 1 two controls were employed containing six mice per control; • (1) Normal Control: This consisted solely of the carrier or diluent used in combination with the test compound; and • (2) Positive Control: This consisted solely of the known anti-tumor agent cis-[Pt(NH3)2C12] (Cisplatin) in saline (8 mg/kg) to test the response of the
The effectiveness of a test compound was measured in terms of the % increase in life span (%ILS) of the test mice relative to the Normal Control (Calculated from the day of tumor inoculation, ie., day zero). To standardize the test data and permit intercomparisons, the day of evaluation was arbitrarily taken as that day corresponding to twice the mean life span (or average day of death) of the control. This established a practical upper limit of 100% on the %ILS attainable. For calculation purposes the survivors on the day of evaluation were considered to have died on that day. The %ILS was calculated as follows: [formula] ILS values in excess of 50% were interpreted as being indicative of anti-tumor activity, whereas, values in excess of 75% indicated excellent activity.
The products of Examples 1, 4, 10 and 11 were administered in a freshly prepared 1% sodium bicarbonate solution; the remaining test compounds were administered as slurries in 0.5% "Klucel" (hydroxypropylcellulose). All products (I) are insoluble in water.

[1] = test system: implanted Sarcoma 180 tumors; conditions: value attributed to commercially available Cisplatin; cited from earlier work
[2] = Therapeutic indices, ED90 and LD50 by the method of Miller and Tainter; parameters: species or system Swiss white mice; conditions: mouse, in vivo; for selectivity ratio: LD50/ED90, read-out: Therapeutic Index; for LD50: lethal dose to 50% of the animals
Method: The therapeutic indices for the present compounds (I), their effective dose (ED90) and lethal dose (LD50) were determined according to the method of Miller and Tainter (Reported by R. A. Turner, "Screening Methods in Pharmacology", Academic Press, New York, pages 61-62 (1976)).

Solubility = format: physicochemical; conditions: 1% sodium bicarbonate solution; read-out: soluble in 1% sodium bicarbonate solution to the extent of

| Compound | Positive Control Survivors (S 180 ascites; Cisplatin in saline, 8 mg/kg, run alongside the example of the same table line, listed as Positive Control) | Therapeutic Index [1] | Survivors (S 180 ascites; Dose 10 mg/kg) | Survivors (S 180 ascites; Dose 20 mg/kg) | Survivors (S 180 ascites; Dose 40 mg/kg) | Survivors (S 180 ascites; Dose 80 mg/kg) | Survivors (S 180 ascites; Dose 160 mg/kg) | Survivors (S 180 ascites; Dose 320 mg/kg) | selectivity ratio [2] | LD50 [2] [mg/kg] | solubility (Solubility) [mg/mL] | Survivors (S 180 ascites; Dose 5 mg/kg) | anti-tumor activity (in words) (S 180 ascites; within the 20-40 mg/kg range) | anti-tumor activity (in words) (S 180 ascites; 50% ILS criterion, all doses tested) |
| --- | --- | --- | --- | --- | --- | --- | --- | --- | --- | --- | --- | --- | --- | --- |
| N.N.[Cl][Pt][Cl] [Cisplatin, cis-[Pt(NH3)2C12], reference compound] | 0 of 6 and 4 of 6 and 1 of 6 and 6 of 6 | 2.2-2.5 |  |  |  |  |  |  |  |  |  |  |  |  |
| O=C(O)c1ccc[n+]([Au-]([Cl])([Cl])[Cl])c1 [Ex. 1, Trichloro(Nicotinic Acid)Gold(III)] |  |  | 0 of 6 | 3 of 6 | 3 of 6 | 4 of 6 | 0 of 6 | 0 of 6 | 5.8 | 180 | 12.8 |  |  |  |
| Cn1cc[n+]([Au-]([Cl])([Cl])[Cl])c1 [Ex. 2, Trichloro(N-Methylimidazole)Gold(III)] |  |  | 0 of 6 | 1 of 6 | 4 of 6 | 1 of 6 | 0 of 6 |  | 2.8 | 90 |  | 0 of 6 | decidedly active |  |
| CC(=O)c1ccc[n+]([Au-]([Cl])([Cl])[Cl])c1 [Ex. 3, trichloro(3-acetylpyridine)gold(III)] |  |  | 0 of 6 | 1 of 6 | 5 of 6 | 4 of 6 | 0 of 6 | 0 of 6 | 4.5 | 140 |  |  |  |  |
| O=C(O)Cc1ccc[n+]([Au-]([Cl])([Cl])[Cl])c1 [Ex. 4, trichloro-(3-pyridyacetic acid)gold(III)] |  |  | 0 of 6 | 0 of 6 | 1 of 6 | 1 of 6 | 0 of 6 | 0 of 6 | 1.8 | 150 | 12.8 |  |  |  |
| Oc1ccc[n+]([Au-]([Cl])([Cl])[Cl])c1 [Ex. 5] |  |  | 0 of 6 | 2 of 6 | 3 of 6 | 2 of 6 | 0 of 6 | 0 of 6 |  |  |  |  |  |  |
| OCc1ccc[n+]([Au-]([Cl])([Cl])[Cl])c1 [Ex. 6] |  |  | 0 of 6 | 1 of 6 | 3 of 6 | 0 of 6 | 0 of 6 | 0 of 6 | 2.1 | 90 |  |  |  |  |
| [Cl][Au-]([Cl])([Cl])[n+]1ccccc1 [Ex. 7, trichloro(pyridine)gold(III)] |  |  | 3 of 6 | 2 of 6 | 3 of 6 | 2 of 6 | 0 of 6 | 0 of 6 |  |  |  |  |  |  |
| [Cl][Au-]([Cl])([Cl])[n+]1cc[nH]c1 [Ex. 8, trichloro(imidazole)gold(III)] |  |  | 0 of 6 | 1 of 6 | 0 of 6 | 1 of 6 | 2 of 6 |  |  |  |  | 0 of 6 |  |  |
| Cn1cc[n+]([Au-]([Br])([Br])[Br])c1 [Ex. 9, Tribromo(N-Methylimidazole)Gold(III)] |  |  | 0 of 6 | 4 of 6 | 3 of 6 | 1 of 6 | 0 of 6 | 0 of 6 | 2 | 85 |  |  |  |  |
| O=C(O)c1ccc[n+]([Au-]([Br])([Br])[Br])c1 [Ex. 10] |  |  | 0 of 6 | 0 of 6 | 2 of 6 | 0 of 6 | 0 of 6 | 0 of 6 |  |  | 12.8 |  |  |  |
| O=C(O)Cc1ccc[n+]([Au-]([Br])([Br])[Br])c1 [Ex. 11, tribromo(3-pyridylacetic acid)gold(III)] |  |  | 0 of 6 | 0 of 6 | 0 of 6 | 1 of 6 | 0 of 6 | 0 of 6 |  |  | 12.8 |  |  |  |
| O=C(O)Cc1ccc[n+]([Au-]([Cl])([Cl])[Cl])c1 [trichloro-(3-pyridyacetic acid)gold(III)] |  |  |  |  |  |  |  |  |  |  |  |  |  | pronounced anti-tumor effect |
